Measurements published in patent US11203591B2, “Substituted 6-azabenzimidazole compounds” (Gilead Sciences, Inc., priority 2018, dated 2021).

Target: human HPK1 (MAP4K1) (Homo sapiens (Human), UniProt Q92918)
Assay: HPK1 IC50 Assay (TR-FRET peptide phosphorylation)
Assay type: biochemical
Details: recombinant HPK1 kinase domain 0.15 nM, 10 μM ATP, 1 μM STK S1 peptide; geometric mean of multiple experiments
In short: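 Readout: TR-FRET (665 nm/620 nm) after EDTA stop, detecting STK S1 peptide (1 μM) phosphorylation by 0.15 nM HPK1 kinase domain, ATP-pre-activated, at 10 μM ATP over 3 h, 25° C, pH 7.0. IC50s from four-parameter variable-slope fits, normalized to staurosporine and DMSO, averaged geometrically.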

human HPK1 (MAP4K1), sequence (Q92918 17-274): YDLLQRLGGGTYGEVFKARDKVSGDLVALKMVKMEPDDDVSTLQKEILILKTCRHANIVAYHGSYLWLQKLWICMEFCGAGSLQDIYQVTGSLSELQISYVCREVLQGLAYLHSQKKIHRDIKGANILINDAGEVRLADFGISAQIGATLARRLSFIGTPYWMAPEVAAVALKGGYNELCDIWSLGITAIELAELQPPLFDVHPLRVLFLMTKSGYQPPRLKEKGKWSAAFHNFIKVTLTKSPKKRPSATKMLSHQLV

SMILES	IC50 [nM]
Cc1c(C(=O)NC2(CF)CC2)cc(Nc2nc(-c3cnc4c(c3)N([C@H]3C[C@@](C)(N5CCCCC5)C3)C(=O)C4(C)C)cc3ncn(C(C)C)c23)c(F)c1F [Example 186, 5-((6-(3,3-Dimethyl-1-((1s,3s)-3-methyl-3-(piperidin-1-yl)cyclobutyl)-2-oxo-2,3-dihydro-1H-pyrrolo[3,2-b]pyridin-6-yl)-3-isopropyl-3H-imidazo[4,5-c]pyridin-4-yl)amino)-3,4-difluoro-N-(1-(fluoromethyl)cyclopropyl)-2-methylbenzamide]	0.07
Cc1c(C(=O)NC2(C(F)F)CC2)cc(Nc2nc(-c3cnc4c(c3)N([C@H]3C[C@@](C)(N5CCC(F)C6(CC6)C5)C3)C(=O)C4(C)C)cc3ncn(C(C)C)c23)c(F)c1F (stereo partly shown) [Example 187, N-(1-(Difluoromethyl)cyclopropyl)-3,4-difluoro-5-((6-(1-((1s,3s)-3-(8-fluoro-5-azaspiro[2.5]octan-5-yl)-3-methylcyclobutyl)-3,3-dimethyl-2-oxo-2,3-dihydro-1H-pyrrolo[3,2-b]pyridin-6-yl)-3-isopropyl-3H-imidazo[4,5-c]pyridin-4-yl)amino)-2-methylbenzamide]	0.2
Cc1c(C(=O)NC2(C(F)F)CC2)cc(Nc2nc(-c3cnc4c(c3)N([C@H]3C[C@@](C)(N5CCOC(C)(C)C5)C3)C(=O)C4(C)C)cc3ncn(C(C)C)c23)c(F)c1F [Example 188, N-(1-(Difluoromethyl)cyclopropyl)-5-((6-(1-((1s,3s)-3-(2,2-dimethylmorpholino)-3-methylcyclobutyl)-3,3-dimethyl-2-oxo-2,3-dihydro-1H-pyrrolo[3,2-b]pyridin-6-yl)-3-isopropyl-3H-imidazo[4,5-c]pyridin-4-yl)amino)-3,4-difluoro-2-methylbenzamide]	0.4
Cc1c(C(=O)NC2(C(F)F)CC2)cc(Nc2nc(-c3cnc4c(c3)N([C@H]3C[C@@](C)(N5C[C@H]6COC[C@H]6C5)C3)C(=O)C4(C)C)cc3ncn(C(C)C)c23)c(F)c1F [Example 189, N-(1-(Difluoromethyl)cyclopropyl)-5-((6-(3,3-dimethyl-1-((1S,3s)-3-methyl-3-((3 aR,6aS)-tetrahydro-1H-furo[3,4-c]pyrrol-5(3H)-yl)cyclobutyl)-2-oxo-2,3-dihydro-1H-pyrrolo[3,2-b]pyridin-6-yl)-3-isopropyl-3H-imidazo[4,5-c]pyridin-4-yl)amino)-3,4-difluoro-2-methylbenzamide]	0.2
Cc1c(C(=O)NC2(C(F)F)CC2)cc(Nc2nc(-c3cnc4c(c3)N(C3CC(C)(N5CCC6C[C@H]5CO6)C3)C(=O)C4(C)C)cc3ncn(C(C)C)c23)c(F)c1F (stereo partly shown) [Example 191, 5-((6-(1-((1s,3s)-3-(6-oxa-2-azabicyclo[3.2.1]octan-2-yl)-3-methylcyclobutyl)-3,3-dimethyl-2-oxo-2,3-dihydro-1H-pyrrolo[3,2-b]pyridin-6-yl)-3-isopropyl-3H-imidazo[4,5-c]pyridin-4-yl)amino)-N-(1-(difluoromethyl)cyclopropyl)-3,4-difluoro-2-methylbenzamide]	0.09
Cc1c(C(=O)NC2(C(F)F)CC2)cc(Nc2nc(-c3cnc4c(c3)N(C3CC(C)(N5CCC6C[C@H]5CO6)C3)C(=O)C4(C)C)cc3ncn(C(C)C)c23)c(F)c1F (stereo partly shown) [Example 192, 5-((6-(1-((1s,3s)-3-(6-oxa-2-azabicyclo[3.2.1]octan-2-yl)-3-methylcyclobutyl)-3,3-dimethyl-2-oxo-2,3-dihydro-1H-pyrrolo[3,2-b]pyridin-6-yl)-3-isopropyl-3H-imidazo[4,5-c]pyridin-4-yl)amino)-N-(1-(difluoromethyl)cyclopropyl)-3,4-difluoro-2-methylbenzamide]	0.1
Cc1c(C(=O)NC2(C(F)F)CC2)cc(Nc2nc(-c3cnc4c(c3)N([C@H]3C[C@@](C)(N5CCOC6(CC6)C5)C3)C(=O)C4(C)C)cc3ncn(C(C)C)c23)c(F)c1F [Example 193, N-(1-(Difluoromethyl)cyclopropyl)-5-((6-(3,3-dimethyl-1-((1s,3s)-3-methyl-3-(4-oxa-7-azaspiro[2.5]octan-7-yl)cyclobutyl)-2-oxo-2,3-dihydro-1H-pyrrolo[3,2-b]pyridin-6-yl)-3-isopropyl-3H-imidazo[4,5-c]pyridin-4-yl)amino)-3,4-difluoro-2-methylbenzamide]	0.2
Cc1c(C(=O)NC2(C(F)F)CC2)cc(Nc2nc(-c3cnc4c(c3)N([C@H]3C[C@@](C)(N5CCCC6(CC6)C5)C3)C(=O)C4(C)C)cc3ncn(C(C)C)c23)c(F)c1F [Example 194, N-(1-(Difluoromethyl)cyclopropyl)-5-((6-(3,3-dimethyl-1-((1s,3s)-3-methyl-3-(5-azaspiro[2.5]octan-5-yl)cyclobutyl)-2-oxo-2,3-dihydro-1H-pyrrolo[3,2-b]pyridin-6-yl)-3-isopropyl-3H-imidazo[4,5-c]pyridin-4-yl)amino)-3,4-difluoro-2-methylbenzamide]	0.06
Cc1c(C(=O)NC2(C(F)F)CC2)cc(Nc2nc(-c3cc4c(nc3F)C(C)(C)C(=O)N4[C@H]3C[C@@](C)(N4CCCCC4)C3)cc3ncn(C(C)C)c23)c(F)c1F [Example 195, N-(1-(Difluoromethyl)cyclopropyl)-3,4-difluoro-5-((6-(5-fluoro-3,3-dimethyl-1-((1s,3s)-3-methyl-3-(piperidin-1-yl)cyclobutyl)-2-oxo-2,3-dihydro-1H-pyrrolo[3,2-b]pyridin-6-yl)-3-isopropyl-3H-imidazo[4,5-c]pyridin-4-yl)amino)-2-methylbenzamide]	0.07
Cc1c(C(=O)NC2(C(F)F)CC2)cc(Nc2nc(-c3cnc4c(c3)N([C@H]3C[C@@](C)(N5CCC[C@@H](F)C5)C3)C(=O)C4(C)C)cc3ncn(C(C)C)c23)c(F)c1F [Example 196, N-(1-(Difluoromethyl)cyclopropyl)-3,4-difluoro-5-((6-(1-((1S,3s)-3-((R)-3-fluoropiperidin-1-yl)-3-methylcyclobutyl)-3,3-dimethyl-2-oxo-2,3-dihydro-1H-pyrrolo[3,2-b]pyridin-6-yl)-3-isopropyl-3H-imidazo[4,5-c]pyridin-4-yl)amino)-2-methylbenzamide]	0.1
Cc1c(C(=O)NC2(C(F)F)CC2)cc(Nc2nc(-c3cnc4c(c3)N([C@H]3C[C@@](C)(N5CCC(F)CC5)C3)C(=O)C4(C)C)cc3ncn(C(C)C)c23)c(F)c1F [Example 197, N-(1-(Difluoromethyl)cyclopropyl)-3,4-difluoro-5-((6-(1-((1s,3s)-3-(4-fluoropiperidin-1-yl)-3-methylcyclobutyl)-3,3-dimethyl-2-oxo-2,3-dihydro-1H-pyrrolo[3,2-b]pyridin-6-yl)-3-isopropyl-3H-imidazo[4,5-c]pyridin-4-yl)amino)-2-methylbenzamide]	0.1
CC(C)n1cnc2cc(-c3cnc4c(c3)N([C@H]3C[C@@](C)(N5CCCOCC5)C3)C(=O)C4(C)C)nc(Nc3cc(C(=O)NC4(C(F)F)CC4)c(Cl)c(F)c3F)c21 [Example 198, 2-Chloro-N-(1-(difluoromethyl)cyclopropyl)-5-((6-(3,3-dimethyl-1-((1s,3s)-3-methyl-3-(1,4-oxazepan-4-yl)cyclobutyl)-2-oxo-2,3-dihydro-1H-pyrrolo[3,2-b]pyridin-6-yl)-3-isopropyl-3H-imidazo[4,5-c]pyridin-4-yl)amino)-3,4-difluorobenzamide]	0.01
CC(C)n1cnc2cc(-c3cnc4c(c3)N([C@H]3C[C@@](C)(N5CCOCC5)C3)C(=O)C4(C)C)nc(Nc3cc(C(=O)NC4(C(F)F)CC4)c(Cl)c(F)c3F)c21 [Example 199, 2-Chloro-N-(1-(difluoromethyl)cyclopropyl)-5-((6-(3,3-dimethyl-1-((1s,3s)-3-methyl-3-morpholinocyclobutyl)-2-oxo-2,3-dihydro-1H-pyrrolo[3,2-b]pyridin-6-yl)-3-isopropyl-3H-imidazo[4,5-c]pyridin-4-yl)amino)-3,4-difluorobenzamide]	0.1
CC(C)n1cnc2cc(-c3cnc4c(c3)N([C@H]3C[C@@](C)(N5CC[C@@H](F)C5)C3)C(=O)C4(C)C)nc(Nc3cc(C(=O)NC4(C(F)F)CC4)c(Cl)c(F)c3F)c21 [Example 200, 2-Chloro-N-(1-(difluoromethyl)cyclopropyl)-3,4-difluoro-5-((6-(1-((1S,3s)-3-((R)-3-fluoropyrrolidin-1-yl)-3-methylcyclobutyl)-3,3-dimethyl-2-oxo-2,3-dihydro-1H-pyrrolo[3,2-b]pyridin-6-yl)-3-isopropyl-3H-imidazo[4,5-c]pyridin-4-yl)amino)benzamide]	0.1
CC(C)n1cnc2cc(-c3cnc4c(c3)N([C@H]3C[C@@](C)(N5CCC[C@@H](F)C5)C3)C(=O)C4(C)C)nc(Nc3cc(C(=O)NC4(C(F)F)CC4)c(Cl)c(F)c3F)c21 [Example 201, 2-Chloro-N-(1-(difluoromethyl)cyclopropyl)-3,4-difluoro-5-((6-(1-((1S,3s)-3-((R)-3-fluoropiperidin-1-yl)-3-methylcyclobutyl)-3,3-dimethyl-2-oxo-2,3-dihydro-1H-pyrrolo[3,2-b]pyridin-6-yl)-3-isopropyl-3H-imidazo[4,5-c]pyridin-4-yl)amino)benzamide]	0.2
CC(C)n1cnc2cc(-c3cnc4c(c3)N([C@H]3C[C@@](C)(N5CCCCC5)C3)C(=O)C4(C)C)nc(Nc3cc(C(=O)NC4(C(F)F)CC4)c(Cl)cc3F)c21 [Example 202, 2-Chloro-N-(1-(difluoromethyl)cyclopropyl)-5-((6-(3,3-dimethyl-1-((1s,3s)-3-methyl-3-(piperidin-1-yl)cyclobutyl)-2-oxo-2,3-dihydro-1H-pyrrolo[3,2-b]pyridin-6-yl)-3-isopropyl-3H-imidazo[4,5-c]pyridin-4-yl)amino)-4-fluorobenzamide]	0.1
